How the values were obtained:
[1] = system: iron chloride (FeCl3)-induced thrombogenesis model; experiment: Arterial thrombosis model, FeCl3-induced carotid artery thrombogenesis; format: in vivo, Sprague-Dawley rats; conditions: rat, 25 mg/kg oral; for Time of thrombogenesis: FeCl3 applied 60 min after administration, occlusion time; for Fold (vs. Control): time of thrombogenesis vs. vehicle control
Description: Vehicle (DMSO: Tween 80: DW=1:2:17) or candidate substance (25 mg/kg) was orally administered to overnight-fasted male Sprague-Dawley rats (250 to 300 g). 30 minutes after administration, the rats were anesthetized by intraperitoneal injection of urethane (1.25 g/kg). The anesthetized animals were restrained on the operating table, and the body temperature was maintained using a heating pad during the entire operating procedure. An incision was made around the neck of the animals to carefully expose the right carotid artery, and the adipose tissues attached to the blood vessels were carefully removed. Doppler flow probe (0.5 mm-diameter, MA0.5PSB, Transonic System Inc., USA) was fixed to the exposed carotid artery, and a doppler flow-meter (TS420, Transonic System Inc., USA) was connected thereto. 60 minutes after oral administration, a piece of Whatman No. 1 filter paper (2 mm×1 mm) soaked with 50% FeCl3 solution was attached to the underlying blood vessels to which the probe was fixed. The filter paper was removed after 10 minutes, and the change of blood flow due to thrombus formation in the carotid artery was measured for 60 minutes after the time point of removal. The occlusion time was defined as the time at which the blood flow became zero more than one minute for the first time.

human platelets = experiment: Cytotoxicity in human platelets (LDH leakage); format: cell-based; conditions: 3 min
Description: 5-2. Evaluation of Cytotoxicity of Candidate Substances Using Human Platelets
Leakage of lactate dehydrogenase (LDH) from the platelets was measured by a spectro-photometry method. 1.2 μl of the test substance was added to 598.8 μl of PRP, and the mixture was reacted at 37° C. for 3 minutes using a thermomixer. After the reaction, 100 μl of the sample was centrifuged at 12,000 g for 2 minutes, and 80 μl of the supernatant was taken and refrigerated until evaluation. The evaluation was performed within 24 hours. […] 25 μl of the sample was added to 1 ml of a pre-warmed Tris-EDTA NADH solution (56 mM Tris(hydroxymethyl) aminomethane, 5.6 mM EDTA, 0.17 mM β-NADH pH 7.4) and reacted for 5 minutes at 37° C. Then, 100 μl of a 14 mM pyruvate solution previously heated at 37° C. was added to the reaction mixture, and absorbance was immediately measured at a wavelength of 339 nm for 1 minute using a spectrophotometer (UV-Vis spectrophotometer, UV-2201, Shidamadzu, Japan). The rate of decrease in absorbance means the rate of oxidation of NADH, indicating the activity of LDH liberated from platelets. Total activity of LDH was measured by inducing lysis of platelets with 0.3% Triton X-100. The basal level of LDH (Control) was measured in plasma. The activity of each sample was measured as a percentage of the total activity of LDH.

plasma [2] = experiment: Plasma coagulation time, Prothrombin Time (PT); format: biochemical; conditions: plasma treated 3 minutes
Description: (§1) In order to separate plasma, blood was collected with 3.2% sodium citrate as an anticoagulant. Whole blood was centrifuged at 2000 g for 20 minutes to obtain plasma. After treating the plasma with the test substances for 3 minutes, plasma coagulation time was measured. For plasma coagulation time, Activated Partial Thromboplastin Time (aPTT) and Prothrombin Time (PT) were measured using BBL® Fibrometer (Becton Dickinson, Cockeysville, Md.). For measurement of aPTT, the plasma was treated with aPTT reagents in fibrometer cup and reacted at 37° C. for 3 min. After the reaction, CaCl2 was added and blood coagulation time was measured immediately. For the measurement of PT, PT reagent was added to warmed plasma, and blood coagulation time was measured immediately. DTI, known to prolong plasma coagulation time, was used as a control.

[3] = system: ADP-induced platelet aggregation, Human PRP; experiment: ADP-induced platelet aggregation in human PRP (lumi-aggregometer); format: cell-based; conditions: ADP 15-20 μM
Description: To investigate whether the candidate substance has inhibition selectivity for shear-stress-induced platelet aggregation, which is by a physical stimulus, […] experiment was conducted by activating platelets with physiological agonists—i.e., thrombin, collagen and ADP—to study the inhibitory effect of the candidate substance.
Human PRP (598.8 μl) was treated with 1.2 μl of the candidate substance per concentration (25, 100, 250 μM) and reacted at 37° C. for 3 minutes using a thermomixer. Then, PRP (495 μl) was put in the aggregometer cuvette and preincubated for 1 minute, followed by treatment with platelet aggregation-inducing reagent, thrombin (0.6-0.8 U/ml), collagen (2-5 μg/ml), or ADP (adenosine diphosphate, 15-20 μM) at the minimum concentration causing maximum aggregation. The degree of aggregation of the platelets was measured by a turbidity change using a lumi-aggregometer (Chrono-Log Co., USA). The turbidity of the PRP was considered as 0%, and the turbidity of the PPP was considered as 100%. During the measurement, the reaction mixture was continuously stirred at 1,000 rpm with a silicone-coated magnetic stir bar.

plasma [4] = experiment: Plasma coagulation time, Activated Partial Thromboplastin Time (aPTT); format: biochemical; conditions: plasma treated 3 minutes
Description: as §1

O=C(c1ccc(O)c(O)c1)N1CCc2sccc2C1 [Example 1, (6,7-Dihydrothieno[3,2-c]pyridin-5(4H)-yl)(3,4-dihydroxyphenyl)methanone]
Time of thrombogenesis [1]: 936 ± 120 s | LDH leakage (%, Mean ± SEM) (human platelets; 25 μM): 2.7 ± 0.5% | LDH leakage (%, Mean ± SEM) (human platelets; 100 μM): 2.4 ± 0.2% | LDH leakage (%, Mean ± SEM) (human platelets; 250 μM): 2.7 ± 0.5% | plasma coagulation time - PT, Time (plasma [2]; 25 μM): 10.8 ± 0.5 s | plasma coagulation time - PT, Time (plasma [2]; 100 μM): 10.7 ± 0.8 s | plasma coagulation time - PT, Time (plasma [2]; 250 μM): 11.0 ± 0.1 s | Degree of platelet aggregation (%, Mean ± SEM) ([3]; compound 25 μM): 77.5 ± 3.5% | Degree of platelet aggregation (%, Mean ± SEM) ([3]; compound 100 μM): 69.0 ± 6.0% | Degree of platelet aggregation (%, Mean ± SEM) ([3]; compound 250 μM): 78.0 ± 7.0% | plasma coagulation time - aPTT, Time (plasma [4]; 25 μM): 23.8 ± 1.9 s | plasma coagulation time - aPTT, Time (plasma [4]; 100 μM): 24.8 ± 2.0 s | plasma coagulation time - aPTT, Time (plasma [4]; 250 μM): 26.7 ± 0.8 s

COc1cc(C(=O)N2CCc3sccc3C2)ccc1O [Example 12, (6,7-Dihydrothieno[3,2-c]pyridin-5(4H)-yl)(4-hydroxy-3-methoxyphenyl)methanone]
Time of thrombogenesis [1]: 665 ± 77 s | Fold (vs. Control) [1]: 1.9 | LDH leakage (%, Mean ± SEM) (human platelets; 25 μM): 2.3 ± 0.5% | LDH leakage (%, Mean ± SEM) (human platelets; 100 μM): 3.6 ± 0.1% | LDH leakage (%, Mean ± SEM) (human platelets; 250 μM): 3.6 ± 0.8% | plasma coagulation time - PT, Time (plasma [2]; 25 μM): 10.9 ± 0.1 s | plasma coagulation time - PT, Time (plasma [2]; 100 μM): 11.0 ± 0.5 s | plasma coagulation time - PT, Time (plasma [2]; 250 μM): 10.5 ± 0.3 s | Degree of platelet aggregation (%, Mean ± SEM) ([3]; compound 25 μM): 76.0 ± 3.0% | Degree of platelet aggregation (%, Mean ± SEM) ([3]; compound 100 μM): 67.5 ± 2.5% | Degree of platelet aggregation (%, Mean ± SEM) ([3]; compound 250 μM): 77.0 ± 12.0% | plasma coagulation time - aPTT, Time (plasma [4]; 25 μM): 24.3 ± 0.1 s | plasma coagulation time - aPTT, Time (plasma [4]; 100 μM): 26.7 ± 1.0 s | plasma coagulation time - aPTT, Time (plasma [4]; 250 μM): 27.2 ± 2.0 s

CCc1occc(=O)c1OC(=O)c1ccc(O)c(OC)c1 [Example 13, 2-Ethyl-4-oxo-4H-pyran-3-yl 4-hydroxy-3-methoxybenzoate]
Time of thrombogenesis [1]: 752 ± 69 s | Fold (vs. Control) [1]: 2.1 | LDH leakage (%, Mean ± SEM) (human platelets; 25 μM): 2.2 ± 0.4% | LDH leakage (%, Mean ± SEM) (human platelets; 100 μM): 4.0 ± 1.2% | LDH leakage (%, Mean ± SEM) (human platelets; 250 μM): 4.0 ± 0.3% | plasma coagulation time - PT, Time (plasma [2]; 25 μM): 11.0 ± 0.3 s | plasma coagulation time - PT, Time (plasma [2]; 100 μM): 10.6 ± 0.2 s | plasma coagulation time - PT, Time (plasma [2]; 250 μM): 10.8 ± 0.3 s | Degree of platelet aggregation (%, Mean ± SEM) ([3]; compound 25 μM): 75.5 ± 1.5% | Degree of platelet aggregation (%, Mean ± SEM) ([3]; compound 100 μM): 75.0 ± 1.0% | Degree of platelet aggregation (%, Mean ± SEM) ([3]; compound 250 μM): 71.5 ± 6.5% | plasma coagulation time - aPTT, Time (plasma [4]; 25 μM): 24.7 ± 1.0 s | plasma coagulation time - aPTT, Time (plasma [4]; 100 μM): 26.6 ± 1.8 s | plasma coagulation time - aPTT, Time (plasma [4]; 250 μM): 27.5 ± 1.7 s

COc1cc(C(=O)Oc2c(C)occc2=O)ccc1O [Example 14, 2-Methyl-4-oxo-4H-pyran-3-yl 4-hydroxy-3-methoxybenzoate]
Time of thrombogenesis [1]: 615 ± 54 s | Fold (vs. Control) [1]: 1.7 | LDH leakage (%, Mean ± SEM) (human platelets; 25 μM): 4.8 ± 0.2% | LDH leakage (%, Mean ± SEM) (human platelets; 100 μM): 5.6 ± 0.9% | LDH leakage (%, Mean ± SEM) (human platelets; 250 μM): 4.2 ± 0.9% | plasma coagulation time - PT, Time (plasma [2]; 25 μM): 10.1 ± 0.3 s | plasma coagulation time - PT, Time (plasma [2]; 100 μM): 10.1 ± 0.0 s | plasma coagulation time - PT, Time (plasma [2]; 250 μM): 11.1 ± 0.1 s | Degree of platelet aggregation (%, Mean ± SEM) ([3]; compound 25 μM): 74.5 ± 2.5% | Degree of platelet aggregation (%, Mean ± SEM) ([3]; compound 100 μM): 75.0 ± 3.0% | Degree of platelet aggregation (%, Mean ± SEM) ([3]; compound 250 μM): 63.5 ± 5.5% | plasma coagulation time - aPTT, Time (plasma [4]; 25 μM): 27.0 ± 0.4 s | plasma coagulation time - aPTT, Time (plasma [4]; 100 μM): 26.7 ± 0.2 s | plasma coagulation time - aPTT, Time (plasma [4]; 250 μM): 26.3 ± 1.7 s

COc1ccc(NC(=O)c2ccc(O)c(OC)c2)c([N+](=O)[O-])c1 [Example 15, 4-Hydroxy-3-methoxy-N-(4-methoxy-2-nitrophenyl)benzamide]
Time of thrombogenesis [1]: 816 ± 78 s | Fold (vs. Control) [1]: 2.3 | LDH leakage (%, Mean ± SEM) (human platelets; 25 μM): 2.7 ± 0.1% | LDH leakage (%, Mean ± SEM) (human platelets; 100 μM): 3.2 ± 0.4% | LDH leakage (%, Mean ± SEM) (human platelets; 250 μM): 3.1 ± 1.3% | plasma coagulation time - PT, Time (plasma [2]; 25 μM): 10.7 ± 0.0 s | plasma coagulation time - PT, Time (plasma [2]; 100 μM): 10.6 ± 0.2 s | plasma coagulation time - PT, Time (plasma [2]; 250 μM): 10.9 ± 0.1 s | Degree of platelet aggregation (%, Mean ± SEM) ([3]; compound 25 μM): 70.5 ± 2.5% | Degree of platelet aggregation (%, Mean ± SEM) ([3]; compound 100 μM): 68.5 ± 3.5% | Degree of platelet aggregation (%, Mean ± SEM) ([3]; compound 250 μM): 67.0 ± 4.0% | plasma coagulation time - aPTT, Time (plasma [4]; 25 μM): 26.3 ± 2.3 s | plasma coagulation time - aPTT, Time (plasma [4]; 100 μM): 26.6 ± 1.0 s | plasma coagulation time - aPTT, Time (plasma [4]; 250 μM): 29.3 ± 0.5 s

O=C(c1cc(O)ccc1O)N1CCc2sccc2C1 [Example 20, (6,7-Dihydrothieno[3,2-c]pyridin-5(4H)-yl)(2,5-dihydroxyphenyl)methanone]
Time of thrombogenesis [1]: 2122 ± 265 s | LDH leakage (%, Mean ± SEM) (human platelets; 25 μM): 4.1 ± 0.7% | LDH leakage (%, Mean ± SEM) (human platelets; 100 μM): 5.2 ± 0.4% | LDH leakage (%, Mean ± SEM) (human platelets; 250 μM): 3.5 ± 1.2% | plasma coagulation time - PT, Time (plasma [2]; 25 μM): 10.8 ± 0.4 s | plasma coagulation time - PT, Time (plasma [2]; 100 μM): 10.2 ± 0.4 s | plasma coagulation time - PT, Time (plasma [2]; 250 μM): 11.2 ± 0.4 s | Degree of platelet aggregation (%, Mean ± SEM) ([3]; compound 25 μM): 73.0 ± 2.0% | Degree of platelet aggregation (%, Mean ± SEM) ([3]; compound 100 μM): 69.0 ± 1.0% | Degree of platelet aggregation (%, Mean ± SEM) ([3]; compound 250 μM): 66.5 ± 2.5% | plasma coagulation time - aPTT, Time (plasma [4]; 25 μM): 24.9 ± 1.0 s | plasma coagulation time - aPTT, Time (plasma [4]; 100 μM): 25.3 ± 0.6 s | plasma coagulation time - aPTT, Time (plasma [4]; 250 μM): 25.8 ± 0.9 s

From US10730886B2, “Compound having effect of inhibiting platelet aggregation and salt thereof, and composition for preventing or treating thrombotic diseases, containing same” (SHIN POONG PHARMACEUTICAL CO., LTD., priority 2015, dated 2020)
